Reference: PubChem BioAssay (NCI)
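Each compound was tested at five concentrations against cells in 96-well plates for 48 hours. TGI: concentration producing complete growth inhibition.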

How the values were obtained:
Experiment in all cases: NCI-60 cell line screen, 48 h
HOP-92 NSCLC = tested on: HOP-92 NSCLC
IGROV1 ovarian = tested on: IGROV1 ovarian
DU-145 prostate = tested on: DU-145 prostate
MALME-3M melanoma = tested on: MALME-3M melanoma
UO-31 renal = tested on: UO-31 renal
BT-549 breast = tested on: BT-549 breast
SF-268 CNS = tested on: SF-268 CNS
RXF 393 renal = tested on: RXF 393 renal
K-562 leukemia = tested on: K-562 leukemia
KM12 colon = tested on: KM12 colon
MCF7 breast = tested on: MCF7 breast
PC-3 prostate = tested on: PC-3 prostate
SF-295 CNS = tested on: SF-295 CNS
RPMI-8226 leukemia = tested on: RPMI-8226 leukemia
NCI-H522 lung = tested on: NCI-H522 lung
SK-MEL-5 melanoma = tested on: SK-MEL-5 melanoma
COLO 205 colon = tested on: COLO 205 colon
M14 melanoma = tested on: M14 melanoma
SNB-75 CNS = tested on: SNB-75 CNS
MOLT-4 leukemia = tested on: MOLT-4 leukemia
HCT-116 colon = tested on: HCT-116 colon
A549 NSCLC = tested on: A549 NSCLC
MDA-MB-231 breast = tested on: MDA-MB-231 breast
T-47D breast = tested on: T-47D breast
CAKI-1 renal = tested on: CAKI-1 renal
MDA-N = tested on: MDA-N
MDA-MB-435 = tested on: MDA-MB-435
TK-10 renal = tested on: TK-10 renal
NCI/ADR-RES ovarian = tested on: NCI/ADR-RES ovarian
LOX IMVI melanoma = tested on: LOX IMVI melanoma
OVCAR-3 ovarian = tested on: OVCAR-3 ovarian
SN12C renal = tested on: SN12C renal
UACC-257 melanoma = tested on: UACC-257 melanoma
OVCAR-5 ovarian = tested on: OVCAR-5 ovarian
ACHN renal = tested on: ACHN renal
HCT-15 colon = tested on: HCT-15 colon
SK-MEL-28 melanoma = tested on: SK-MEL-28 melanoma
OVCAR-4 ovarian = tested on: OVCAR-4 ovarian
UACC-62 melanoma = tested on: UACC-62 melanoma
786-0 renal = tested on: 786-0 renal
U251 CNS = tested on: U251 CNS
NCI-H226 lung = tested on: NCI-H226 lung
NCI-H23 lung = tested on: NCI-H23 lung
HT29 colon = tested on: HT29 colon
SR leukemia = tested on: SR leukemia
A498 renal = tested on: A498 renal
HOP-62 NSCLC = tested on: HOP-62 NSCLC
HS 578T breast = tested on: HS 578T breast
SK-OV-3 ovarian = tested on: SK-OV-3 ovarian
SNB-19 CNS = tested on: SNB-19 CNS
SK-MEL-2 melanoma = tested on: SK-MEL-2 melanoma
EKVX NSCLC = tested on: EKVX NSCLC
OVCAR-8 ovarian = tested on: OVCAR-8 ovarian
NCI-H460 lung = tested on: NCI-H460 lung
SW-620 colon = tested on: SW-620 colon
HL-60(TB) leukemia = tested on: HL-60(TB) leukemia
CCRF-CEM leukemia = tested on: CCRF-CEM leukemia

Question: Which TGI (HOP-92 NSCLC) does the source give for CC(=O)OC1CCC2(C)C(=CC(C3C=C4CC(OC(C)=O)CCC4(C)C4=C3C3CC5OC6(CCC(C)CO6)C(C)C5C3(C)CC4)C3=C2CCC2(C)C3CC3OC4(CCC(C)CO4)C(C)C32)C1 (stereo not given) here?
Answer: Its TGI is 27.1 µM.

Question: And the TGI (IGROV1 ovarian)?
Answer: The TGI was 23.6 µM.

Question: And the TGI (DU-145 prostate)?
Answer: Its TGI is 27.2 µM.

Question: And the TGI (MALME-3M melanoma)?
Answer: Its TGI is 26.4 µM.

Question: What about the TGI (UO-31 renal) of the same compound?
Answer: The TGI was 28.9 µM.

Question: What about the TGI (BT-549 breast) of the same compound?
Answer: Its TGI is 29.7 µM.

Question: What about the TGI (SF-268 CNS) of the same compound?
Answer: The TGI was 23.5 µM.

Question: And the TGI (RXF 393 renal)?
Answer: The TGI was 31.5 µM.

Question: What about the TGI (K-562 leukemia) of the same compound?
Answer: The TGI was 15.2 µM.

Question: What about the TGI (KM12 colon) of the same compound?
Answer: The TGI was 35.7 µM.

Question: What about the TGI (MCF7 breast) of the same compound?
Answer: Its TGI is 21.9 µM.

Question: And the TGI (PC-3 prostate)?
Answer: The TGI was 25.6 µM.

Question: What about the TGI (SF-295 CNS) of the same compound?
Answer: The TGI was 26.5 µM.

Question: And the TGI (RPMI-8226 leukemia)?
Answer: The TGI was 16.2 µM.

Question: And the TGI (NCI-H522 lung)?
Answer: Its TGI is 19.4 µM.

Question: What about the TGI (SK-MEL-5 melanoma) of the same compound?
Answer: The TGI was 25.7 µM.

Question: What about the TGI (COLO 205 colon) of the same compound?
Answer: Its TGI is 36.1 µM.

Question: And the TGI (M14 melanoma)?
Answer: The TGI was 26.9 µM.

Question: And the TGI (SNB-75 CNS)?
Answer: Its TGI is 29.9 µM.

Question: And the TGI (MOLT-4 leukemia)?
Answer: The TGI was 4.7 µM.

Question: What about the TGI (HCT-116 colon) of the same compound?
Answer: Its TGI is 28.4 µM.

Question: What about the TGI (A549 NSCLC) of the same compound?
Answer: The TGI was 26.5 µM.

Question: And the TGI (MDA-MB-231 breast)?
Answer: The TGI was 32 µM.

Question: What about the TGI (T-47D breast) of the same compound?
Answer: Its TGI is 42.7 µM.

Question: What about the TGI (CAKI-1 renal) of the same compound?
Answer: The TGI was 32.1 µM.

Question: What about the TGI (MDA-N) of the same compound?
Answer: The TGI was 30.9 µM.

Question: And the TGI (MDA-MB-435)?
Answer: The TGI was 27.1 µM.

Question: And the TGI (TK-10 renal)?
Answer: Its TGI is 27.6 µM.

Question: And the TGI (NCI/ADR-RES ovarian)?
Answer: Its TGI is 37.7 µM.

Question: And the TGI (LOX IMVI melanoma)?
Answer: The TGI was 30.1 µM.

Question: And the TGI (OVCAR-3 ovarian)?
Answer: Its TGI is 28.6 µM.

Question: And the TGI (SN12C renal)?
Answer: The TGI was 31.9 µM.

Question: And the TGI (UACC-257 melanoma)?
Answer: Its TGI is 21.9 µM.

Question: And the TGI (OVCAR-5 ovarian)?
Answer: The TGI was 35.9 µM.

Question: What about the TGI (ACHN renal) of the same compound?
Answer: The TGI was 29.2 µM.

Question: What about the TGI (HCT-15 colon) of the same compound?
Answer: The TGI was 28.4 µM.

Question: And the TGI (SK-MEL-28 melanoma)?
Answer: The TGI was 31.5 µM.

Question: What about the TGI (OVCAR-4 ovarian) of the same compound?
Answer: Its TGI is 28.2 µM.

Question: What about the TGI (UACC-62 melanoma) of the same compound?
Answer: Its TGI is 26.1 µM.

Question: What about the TGI (786-0 renal) of the same compound?
Answer: Its TGI is 29.6 µM.

Question: What about the TGI (U251 CNS) of the same compound?
Answer: Its TGI is 27.8 µM.

Question: What about the TGI (NCI-H226 lung) of the same compound?
Answer: Its TGI is 41.5 µM.

Question: What about the TGI (NCI-H23 lung) of the same compound?
Answer: The TGI was 27.9 µM.

Question: What about the TGI (HT29 colon) of the same compound?
Answer: Its TGI is 27.2 µM.

Question: And the TGI (SR leukemia)?
Answer: Its TGI is 28.3 µM.

Question: And the TGI (A498 renal)?
Answer: Its TGI is 30.8 µM.

Question: What about the TGI (HOP-62 NSCLC) of the same compound?
Answer: Its TGI is 32.5 µM.

Question: And the TGI (HS 578T breast)?
Answer: Its TGI is 17 µM.

Question: And the TGI (SK-OV-3 ovarian)?
Answer: Its TGI is 32.7 µM.

Question: And the TGI (SNB-19 CNS)?
Answer: Its TGI is 30.4 µM.

Question: And the TGI (SK-MEL-2 melanoma)?
Answer: The TGI was 33.9 µM.

Question: And the TGI (EKVX NSCLC)?
Answer: The TGI was 37.1 µM.

Question: What about the TGI (OVCAR-8 ovarian) of the same compound?
Answer: The TGI was 23.1 µM.

Question: What does the source list for Nc1cccc(OCc2nc(N)nc(N)c2-c2ccc(Cl)cc2)c1?
Answer: TGI (HOP-92 NSCLC): > 100 µM; TGI (IGROV1 ovarian): > 100 µM; TGI (DU-145 prostate): > 100 µM; TGI (MALME-3M melanoma): > 100 µM; TGI (UO-31 renal): > 100 µM; TGI (BT-549 breast): > 100 µM; TGI (SF-268 CNS): > 100 µM; TGI (RXF 393 renal): > 100 µM; TGI (K-562 leukemia): > 100 µM; TGI (KM12 colon): > 100 µM; TGI (MCF7 breast): > 100 µM; TGI (PC-3 prostate): > 100 µM; TGI (SF-295 CNS): > 100 µM; TGI (RPMI-8226 leukemia): > 100 µM; TGI (NCI-H460 lung): > 100 µM; TGI (NCI-H522 lung): > 100 µM; TGI (SK-MEL-5 melanoma): > 100 µM; TGI (COLO 205 colon): 44.1 µM; TGI (M14 melanoma): > 100 µM; TGI (SNB-75 CNS): > 100 µM; TGI (MOLT-4 leukemia): > 100 µM; TGI (HCT-116 colon): > 100 µM; TGI (A549 NSCLC): > 100 µM; TGI (MDA-MB-231 breast): > 100 µM; TGI (T-47D breast): > 100 µM; TGI (CAKI-1 renal): > 100 µM; TGI (MDA-N): > 100 µM; TGI (SW-620 colon): > 100 µM; TGI (MDA-MB-435): > 100 µM; TGI (TK-10 renal): > 100 µM; TGI (HL-60(TB) leukemia): 77.3 µM; TGI (NCI/ADR-RES ovarian): > 100 µM; TGI (LOX IMVI melanoma): > 100 µM; TGI (OVCAR-3 ovarian): > 100 µM; TGI (SN12C renal): > 100 µM; TGI (UACC-257 melanoma): > 100 µM; TGI (OVCAR-5 ovarian): > 100 µM; TGI (ACHN renal): > 100 µM; TGI (HCT-15 colon): > 100 µM; TGI (SK-MEL-28 melanoma): > 100 µM; TGI (OVCAR-4 ovarian): > 100 µM; TGI (UACC-62 melanoma): > 100 µM; TGI (786-0 renal): > 100 µM; TGI (U251 CNS): > 100 µM; TGI (NCI-H226 lung): 79.5 µM; TGI (NCI-H23 lung): > 100 µM; TGI (HT29 colon): > 100 µM; TGI (SR leukemia): > 100 µM; TGI (A498 renal): > 100 µM; TGI (HOP-62 NSCLC): > 100 µM; TGI (HS 578T breast): > 100 µM; TGI (SK-OV-3 ovarian): > 100 µM; TGI (SNB-19 CNS): > 100 µM; TGI (CCRF-CEM leukemia): 29.2 µM; TGI (SK-MEL-2 melanoma): > 100 µM; TGI (EKVX NSCLC): > 100 µM; TGI (OVCAR-8 ovarian): > 100 µM
